{"source": "patent US6358517B1", "about": "“Cosmetic compositions containing resveratrol and retinoids” (Unilever Home & Personal Care USA, division of Conopco, priority 1999, dated 2002)", "key": {"[1]": {"test_system": "Cellular Retinoic Acid Binding Protein 2 (CRABP-2)", "test": "CRABP-2 expression in human adult skin fibroblasts, Western blot", "type": "cell-based", "settings": "for CRABP-2 expression in skin fibroblasts in combination with resveratrol (in words): retinoid combined with resveratrol, summary of Tables 2A and 2B", "experimental": "Human adult fibroblasts obtained from sun-protected inner arm of the […] were used. Cells were grown in 1:1 DMEM/Hams F12 media containing 10% FBS, maintained at 37° C. in a 5% CO2 atmosphere under normal atmospheric oxygen tension. Third passage adult fibroblasts were grown in DMEM media with 10% FBS in 12-well plates at a seeding density of 40,000 cells/ml/well. The cells at 80% confluence were rinsed in serum free and phenol red free (PRF) DMEM media twice. Cells were pretreated with resveratrol for 4 hours was conducted and then dosed with retinoids and incubated for a further 48 hours. After the incubation, the wells were washed twice with 1×PBS and the cell monolayer was harvested in 100 μl cell lysis buffer (contained 1×PBS, 1% TritonX, 0.5% sodium deoxycholate, 0.1% SDS containing protease inhibitor (10 mg/ml PMSF in isopropanol, 10 μl/ml). The suspension was spun at 14000 rpm for 10 minutes, the supernatant collected and an aliquot of this supernatant was used for protein quantification. Protein concentration was determined using Pierce protein kit. The remainder of 1 00ul supernatant (cell lysate) was denatured in a mixture of 40 μl sample buffer (NOVEX) and 0.5% Beta mercaptoethanol (BME) and by boiling the sample for 5 minutes.\n(§1) Within the cells, retinol and retinoic acid are bound to specific cellular binding proteins. Two of the major proteins are CRABP-1 and CRABP-2 (Roos et al., Pharmacological reviews: 50, 315-333, 1998). These proteins regulate the intracellular concentration of retinoids by acting as either storage or shuttle proteins in retinoid metabolism. The levels of CRABP protein are regulated by the amount of retinoic acid within the cells. Higher cellular levels of retinoids increase the expression of CRABP-2. Therefore, the amount of this protein in the cells, is a measure of the retinoid activity of the cells. Skin cells contain high levels of CRABP-2 both in the epidermis and the dermis. CRABP-2 response to retinoid administration in fibroblasts in vitro is used as a reproducible measure of retinoid bioactivity that predict human skin responses (Elder et al., J. Invest. Dermatol., 106: 517-521, 1996). Increase in CRABP-2 is also associated with increased epidermal differentiation, and dermal retinoid action. Therefore, in these studies we used CRABP-2 expression of fibroblasts and pig skin epidermis as a measure of retinoid activity leading to increased epidermal differentiation (skin conditioning and dry skin benefit) and dermal collagen and extracellular matrix synthesis (antiaging, anti wrinkling benefits).\nTo measure the levels of CRABP-2 in the fibroblast and pig skin extracts prepared as described above, the cell supernatant was re-suspended in 4×sample buffer and 10% BME, boiled for 5 minutes and used for western blotting. Equal amounts of protein were loaded onto 16% Tris-glycine gels for CRABP-2 protein analysis by SDS-PAGE and Western Immuno-blotting. The gels were transferred to PVDF membranes and Western Blotting was carried out using monoclonal antibodies to CRABP-2 according to standard procedures. The CRABP-2 protein band was visualized in the Western Blots using the chemiluminescence system obtained from Boehringer Mannheim (Indianopolis, Ind.). The bands in the film were quantified by densitometric scanning, the data from triplicate samples were calculated as % of control and expressed in the following tables as % increase over control (with control as 100%) +/− standard deviation. […]"}, "[2]": {"test_system": "Cellular Retinoic Acid Binding Protein 2 (CRABP-2)", "test": "CRABP-2 expression in pig skin organ culture (epidermis), Western blot", "type": "cell-based", "settings": "for effects on CRABP-2 expression (in words): alone, pig skin epidermis, summary of Table 1", "experimental": "7 mm pig skin biopsies were taken, plated in serum free DMEM, and incubated for 2 days. The media was then switched to phenol-red free media. The biopsies were topically treated with resveratrol for 24 hrs in 5 μl ethanol per biopsy. After 24 hours, retinoids were topically applied to the biopsies. The treated biopsies were incubated for 4 days thereafter. After treatment phase, the biopsies were rinsed in 1×phosphate-buffer twice and then frozen at −20° C. for future use. The epidermis and dermis was separated by freezing and scraping off the epidermis. The epidermis was collected and homogenized in lysis buffer (contains 1×PBS, 1% TritonX, 0.5% sodium deoxycholate, 0.1% SDS containing protease inhibitor (10 mg/ml PMSF in isopropanol at 10 μl/ml, Aprotinin 30 μl/ml and 100 mM sodium orthovanadate at 10 μl/ml). This homogenate was then spun at 14000 rpm and the supernatant was collected for determining protein (aliquot of the supernatant for protein determination).\nas §1, with “Two of the major proteins are CRABP-1 and CRABP-2 (Roos et al., Pharmacological reviews: 50, 315-333, 1998).” left out, “CRABP-2 response to retinoid administration in fibroblasts in vitro is used as a reproducible measure of retinoid bioactivity that predict human skin responses (Elder et al., J. Invest. Dermatol., 106: 517-521, 1996).” left out\nTo measure the levels of CRABP-2 in the fibroblast and pig skin extracts prepared as described above, the cell supernatant was re-suspended in 4×sample buffer and 10% BME, boiled for 5 minutes and used for western blotting. […] The gels were transferred to PVDF membranes and Western Blotting was carried out using monoclonal antibodies to CRABP-2 according to standard procedures. The CRABP-2 protein band was visualized in the Western Blots using the chemiluminescence system obtained from Boehringer Mannheim (Indianopolis, Ind.). The bands in the film were quantified by densitometric scanning, the data from triplicate samples were calculated as % of control and expressed in the following tables as % increase over control (with control as 100%) +/− standard deviation."}, "[3]": {"settings": "Table 2B, 10 μM Resveratrol alone"}, "[4]": {"settings": "Table 2B, 10 μM Retinoic acid alone"}, "[5]": {"settings": "Homo sapiens, Skin fibroblast, Table 2A, 100 nM alone, read-out: % of Control"}}, "data": [{"compound": "Oc1ccc(/C=C/c2cc(O)cc(O)c2)cc1", "note": "[Resveratrol, 5-parahydroxystyryl resorcinol]", "values": [{"measurement": "activity at 10 µM", "setting": "[1]; Homo sapiens, Skin fibroblast, Table 2A, 10 μM alone, read-out: % of Control", "value": 27, "unit": "%"}, {"measurement": "CRAB-2 production", "setting": "[1]; Table 2A, 10 μM alone", "value": "0.416 +/− 0.12"}, {"measurement": "% as Control", "setting": "[1]; [3]", "value": "32 +/− 1%"}, {"measurement": "CRABP-2 production", "setting": "[1]; [3]", "value": 0.185}, {"measurement": "activity at 50 µM", "setting": "[2]; Sus scrofa, Experiment 1, 50 μM, topical on pig skin biopsies, read-out: CRABP-2, Alone (% of control, control as 100%)", "value": 143, "unit": "%"}, {"measurement": "activity at 20 µM", "setting": "[2]; Sus scrofa, Experiment 2, 20 μM, topical on pig skin biopsies, read-out: CRABP-2, Alone (% of control, control as 100%)", "value": 242, "unit": "%"}, {"measurement": "effects on CRABP-2 expression (in words)", "setting": "[2]", "value": "only minimal, insignificant effects"}]}, {"compound": "CC1=C(/C=C/C(C)=C/C=C/C(C)=C/C(=O)O)C(C)(C)CCC1", "note": "[Retinoic acid]", "values": [{"measurement": "activity at 0.001 µM", "setting": "[1]; Homo sapiens, Skin fibroblast, Table 2A, 1 nM alone, read-out: % of Control", "value": 132, "unit": "%"}, {"measurement": "activity at 0.01 µM", "setting": "[1]; Homo sapiens, Skin fibroblast, Table 2A, 10 nM alone, read-out: % of Control", "value": 165, "unit": "%"}, {"measurement": "CRAB-2 production", "setting": "[1]; Table 2A, 1 nM alone", "value": "2.056 +/− 0.50"}, {"measurement": "CRAB-2 production", "setting": "[1]; Table 2A, 10 nM alone", "value": "2.566 +/− 0.19"}, {"measurement": "% as Control", "setting": "[1]; [4]", "value": "574 +/− 60%"}, {"measurement": "CRABP-2 production", "setting": "[1]; [4]", "value": "3.27 +/− 0.34"}, {"measurement": "% as Control", "setting": "[1]; Table 3, 10 nM alone", "value": "266 +/− 80%"}, {"measurement": "CRABP-2 production", "setting": "[1]; Table 3, 10 nM alone", "value": "1.201 +/− 0.36"}]}, {"compound": "CC1=C(/C=C/C(C)=C/C=C/C(C)=C/CO)C(C)(C)CCC1", "note": "[Retinol]", "values": [{"measurement": "% as Control", "setting": "[1]; Table 2B, 1 μM alone", "value": "270 +/− 73%"}, {"measurement": "CRABP-2 production", "setting": "[1]; Table 2B, 1 μM alone", "value": "1.54 +/− 0.41"}, {"measurement": "% as Control", "setting": "[1]; Table 3, 100 nM alone", "value": "308 +/− 108%"}, {"measurement": "CRABP-2 production", "setting": "[1]; Table 3, 100 nM alone", "value": "1.387 +/− 0.49"}, {"measurement": "CRABP-2 expression in skin fibroblasts in combination with resveratrol (in words)", "setting": "[1]", "value": "effective"}, {"measurement": "activity at 5 µM", "setting": "[2]; Sus scrofa, Experiment 2, 5 μM, topical on pig skin biopsies, read-out: CRABP-2, Alone (% of control, control as 100%)", "value": 345, "unit": "%"}, {"measurement": "effects on CRABP-2 expression (in words)", "setting": "[2]", "value": "significantly higher stimulation"}]}, {"compound": "CC(=O)OC/C=C(C)/C=C/C=C(C)/C=C/C1=C(C)CCCC1(C)C", "note": "[Retinyl Acetate]", "values": [{"measurement": "activity at 0.1 µM", "setting": "[1]; [5]", "value": 56, "unit": "%"}, {"measurement": "CRABP-2 expression in skin fibroblasts (in words)", "setting": "[1]; Low levels (100 nm), either alone or in combination with resveratrol", "value": "ineffective"}, {"measurement": "CRAB-2 production", "setting": "[1]; Table 2A, 100 nM alone", "value": "0.876 +/− 0.20"}, {"measurement": "% as Control", "setting": "[1]; Table 2B, 1 μM alone", "value": "178 +/− 102%"}, {"measurement": "CRABP-2 production", "setting": "[1]; Table 2B, 1 μM alone", "value": "1.01 +/− 0.58"}, {"measurement": "% as Control", "setting": "[1]; Table 3, 100 nM alone", "value": "124 +/− 42%"}, {"measurement": "CRABP-2 production", "setting": "[1]; Table 3, 100 nM alone", "value": "0.561 +/− 0.19"}, {"measurement": "CRABP-2 expression in skin fibroblasts (in words)", "setting": "[1]; higher levels (Table 2B), in the presence of reveratrol", "value": "stimulated CRABP-2 expression"}]}, {"compound": "CCCCC/C=C\\C/C=C\\CCCCCCCC(=O)OC/C=C(C)/C=C/C=C(C)/C=C/C1=C(C)CCCC1(C)C", "note": "[Retinyl Linoleate]", "values": [{"measurement": "% of Control", "setting": "[1]; Table 2A, 100 nM alone", "value": "57 +/− 14%"}, {"measurement": "CRAB-2 production", "setting": "[1]; Table 2A, 100 nM alone", "value": "0.88 +/− 0.23"}, {"measurement": "% as Control", "setting": "[1]; Table 2B, 1 μM alone", "value": "112 +/− 75%"}, {"measurement": "% as Control", "setting": "[1]; Table 3, 100 nM alone", "value": "253 +/− 127%"}, {"measurement": "CRABP-2 production", "setting": "[1]; Table 3, 100 nM alone", "value": "1.141 +/− 0.57"}]}, {"compound": "CCCCCCCCCCCCCCCC(=O)OC/C=C(C)/C=C/C=C(C)/C=C/C1=C(C)CCCC1(C)C", "note": "[Retinyl Palmitate]", "values": [{"measurement": "activity at 0.1 µM", "setting": "[1]; [5]", "value": 25, "unit": "%"}, {"measurement": "CRAB-2 production", "setting": "[1]; Table 2A, 100 nM alone", "value": "0.376 +/− 0.11"}, {"measurement": "% as Control", "setting": "[1]; Table 2B, 1 μM alone", "value": "503 +/− 260%"}, {"measurement": "CRABP-2 production", "setting": "[1]; Table 2B, 1 μM alone", "value": "2.87 +/− 1.48"}, {"measurement": "% as Control", "setting": "[1]; Table 3, 100 nM alone", "value": "254 +/− 101%"}, {"measurement": "CRABP-2 production", "setting": "[1]; Table 3, 100 nM alone", "value": "1.143 +/− 0.45"}, {"measurement": "CRABP-2 expression in skin fibroblasts in combination with resveratrol (in words)", "setting": "[1]", "value": "not effective"}]}]}
